Results: ChEMBL document CHEMBL4483862, “Open-source discovery of chemical leads for next-generation chemoprotective antimalarials” (2018)

Tested on: Plasmodium berghei
Assay: Luciferase/luciferin-expressing antifolate-resistant parasites were used to infect a culture of HepG2 cells that were pre-incubated with compounds. Infected hepatocytes emit light due to the luciferase reaction. Assay results are presented as the percent inhibition of light emission compared to control. […]
Format: functional
Conditions: sporozoite; for IC90: read-out: LUCIFERASE INFECTION ASSAY - IC90
[1] = read-out: LUCIFERASE INFECTION ASSAY - IC50

SMILES | IC90 | IC50 [1] | also measured
CCOc1cccc(-c2cn3c(-c4ccc(C(=O)NC5CC5)cc4)cnc3cn2)c1 | 8.02 µM |  | IC50 (HEPG2TOX_HILL_SLOPE 1.3, HEPG2TOX_R_SQUARED 0.854, PBLUC_HILL_SLOPE 1.74, PBLUC_R_SQUARED 0.806, read-out: LUCIFERASE INFECTION ASSAY - IC50): 2.27 µM
CC(C)(C)Nc1ccn2nc(-c3ccco3)cc2n1 | > 12.9 µM |  | IC50 (PBLUC_HILL_SLOPE 2.89, PBLUC_R_SQUARED 0.538, read-out: LUCIFERASE INFECTION ASSAY - IC50): 8.49 µM
CCCOc1c(/C=C/C(=O)c2ccc(OCC#N)cc2)cccc1OCC | 9.68 µM |  | IC50 (PBLUC_HILL_SLOPE 10.6, PBLUC_R_SQUARED 0.425, read-out: LUCIFERASE INFECTION ASSAY - IC50): 7.88 µM
CCOC(=O)c1ccc2c(c1)C1C=CCC1C(c1cccnc1)N2 (stereo unspecified) | > 10.3 µM | > 10.3 µM | 
CCCc1ccc(-c2nc(NC(=O)C3CCCN(c4ncccn4)C3)sc2C)cc1 (stereo unspecified) | > 10 µM |  | IC50 (FFLUC_HILL_SLOPE 11.3, FFLUC_R_SQUARED 0.0894, PBLUC_HILL_SLOPE 12.7, PBLUC_R_SQUARED 0.313, read-out: LUCIFERASE INFECTION ASSAY - IC50): 9.57 µM
COc1cc(-c2ccc3ncc(-c4cccc(NC(C)=O)c4)n3n2)cc(OC)c1OC | 4.34 µM |  | IC50 (HEPG2TOX_HILL_SLOPE 0.736, HEPG2TOX_R_SQUARED 0.983, PBLUC_HILL_SLOPE 1.49, PBLUC_R_SQUARED 0.582, read-out: LUCIFERASE INFECTION ASSAY - IC50): 0.995 µM
COc1ccc(Nc2cc3c(cn2)cc(-c2ccc(C(=O)N(C)C)cc2)n3Cc2ccccc2)cc1 | 9.34 µM |  | IC50 (HEPG2TOX_HILL_SLOPE 6.65, HEPG2TOX_R_SQUARED 0.257, PBLUC_HILL_SLOPE 26.3, PBLUC_R_SQUARED 0.641, read-out: LUCIFERASE INFECTION ASSAY - IC50): 8.59 µM
Cc1cc(-n2c(C)cc(C(=O)COc3ccccc3C#N)c2C)no1 | > 10 µM |  | IC50 (PBLUC_HILL_SLOPE 4.77, PBLUC_R_SQUARED 0.224, read-out: LUCIFERASE INFECTION ASSAY - IC50): 7.56 µM
FC(F)(F)c1cccc(CNc2ncnc3sccc23)c1 | 6.39 µM |  | IC50 (HEPG2TOX_HILL_SLOPE 0.888, 1.51, HEPG2TOX_R_SQUARED 0.921, 0.862, PBLUC_HILL_SLOPE 1.26, 1.66, PBLUC_R_SQUARED 0.564, 0.617, read-out: LUCIFERASE INFECTION ASSAY - IC50): 1.42 µM
Cc1cc(NC(=O)C(C)(C)C)sc1C(=O)Nc1ccccc1O | 0.526 µM |  | 
O=C(Nc1nc2ccccc2[nH]1)c1oc2ccccc2c1COc1ccccc1 | > 10 µM | > 10 µM | 
O=C(Nc1sc2c(c1-c1nc3ccccc3[nH]1)CCCC2)c1nc(-c2ccccc2)n(-c2ccccc2)n1 | > 10 µM | 9.63 µM | 
Cc1cccc(-c2cn3c(-c4ccc(CO)cc4)cnc3cn2)c1C | > 10 µM |  | IC50 (PBLUC_HILL_SLOPE 11.7, PBLUC_R_SQUARED 0.283, read-out: LUCIFERASE INFECTION ASSAY - IC50): 8.31 µM
O=C(NNC1c2ccccc2-c2ccccc21)c1ccccc1 | > 10 µM | 8.58 µM | 
CC1(C)CCc2cc(/C=N/C(C#N)C(=N)C#N)ccc2O1 (stereo unspecified) | > 11.8 µM |  | IC50 (FFLUC_HILL_SLOPE 1.61, FFLUC_R_SQUARED 0.207, read-out: LUCIFERASE INFECTION ASSAY - IC50): > 11.8 µM
Cc1cc(C=C2Sc3ccccc3N2C)cc(C)[n+]1C(C)C1CC2CCC1C2 (stereo unspecified) | 0.589 µM |  | IC50 (HEPG2TOX_HILL_SLOPE 0.905, HEPG2TOX_R_SQUARED 0.888, PBLUC_HILL_SLOPE 1.95, PBLUC_R_SQUARED 0.822, read-out: LUCIFERASE INFECTION ASSAY - IC50): 0.19 µM
CC(C)CN(C(=O)COC(=O)/C=C/c1nc2ccccc2s1)c1c(N)n(Cc2ccccc2)c(=O)[nH]c1=O | 3.98 µM | 3.46 µM | 
O=C1CN(C(=O)Cc2ccc3c(c2)CCO3)c2ccccc2N1 | > 10 µM | > 10 µM | 
CC1(C(=O)NCCC(F)(F)F)Cc2c(-c3ccc4c(c3)OCO4)ccnc2O1 (stereo unspecified) | 6.15 µM |  | IC50 (FFLUC_HILL_SLOPE 14.8, FFLUC_R_SQUARED 0.74, HEPG2TOX_HILL_SLOPE 2.73, HEPG2TOX_R_SQUARED 0.858, PBLUC_HILL_SLOPE 3.16, PBLUC_R_SQUARED 0.521, read-out: LUCIFERASE INFECTION ASSAY - IC50): 3.07 µM
Cc1ccc(SCCNS(=O)(=O)c2ccc(F)cc2)cc1 | > 10.1 µM | > 10.1 µM | 
Fc1ccc(COc2ccc3ccccc3c2CNCc2ccccn2)cc1 | > 8.86 µM |  | IC50 (PBLUC_HILL_SLOPE 18.6, PBLUC_R_SQUARED 0.616, read-out: LUCIFERASE INFECTION ASSAY - IC50): 8.21 µM
